The source of these data is patent US20080200441A1, “ESTROGEN RECEPTOR MODULATORS ASSOCIATED PHARMACEUTICAL COMPOSITIONS AND METHODS OF USE” (University of Southern California, priority 2007, published 2008).

Each structure is given as a SMILES string.

One assay relates to MCF-7 cells. Description: MCF-7 cell proliferation, MTT. The format is cell-based, human. Particulars: 3 days, serially diluted concentrations, MTT at 570 nm.
Assay [1] concerns rat primary hippocampal neurons. Kind of assay: Intracellular calcium imaging in hippocampal neurons. The format is cell-based. The protocol: The [Ca^2+]i in hippocampal neurons was measured by ratiometric Ca^2+ imaging with the Ca^2+-sensitive fluorescent dye fura-2. Prior to imaging, hippocampal neurons were loaded with 2 μM fura-2 acetoxymethyl ester (fura-2 AM, Molecular Probes, Inc., Eugene, Oreg.) for 30-45 min at 37° C. in HEPES-Buffered Solution (HBS), containing (in mM): 100 NaCl, 2.0 KCl, 1.0 CaCl2, 1.0 MgCl2, 1.0 NaH2PO4, 4.2 NaHCO3, 12.5 HEPES and 10.0 glucose. Excess fura-2 AM dye was removed by washing with HBS and then the neurons were incubated in HBS for 30 min at 37° C. to equilibrate. The coverslip with fura-2 AM-loaded neurons was removed and attached to the coverslip clamp chamber MS-502S (ALA Scientific Instruments, Westbury, N.Y.) for the Ca^2+ imaging analysis. Neurons were placed on the stage of an inverted microscope (MT-2, Olympus) equipped with epifluorescence optics (20× Nikon), The perfusion solution is HBS and the perfusion system connected to the perfusion chamber was balanced using two variable speed pumps. Imaging was performed at room temperature. Neurons were perfused at a flow rate of 2 ml/min. Fura-2 was excited by a xenon light source at 340 and 380 nm. The emitted fluorescence was filtered through a 520 nm filter, captured with an intensified CCD camera (COHU) and analyzed with InCyt Im2 software (Intracellular Imaging, Cincinnati, Ohio). The concentration of Ca^2+ was calculated by comparing the ratio of fluorescence at 340 and 380 nm against a standard curve of known [Ca^2+].
On the technique in general: Calcium flux is commonly read through the fluorescence of an indicator in the cells.

The test system is the same in assay [2]. Particulars: previous reports; cited from earlier work.
The subject of assay [3] is Bcl-2. Particulars: previously observed; cited from earlier work.
The next assay has as its system Bcl-XL. Conditions: previously observed; cited from earlier work.
Another assay deals with spinophilin. Conditions: primary neurons, earlier findings; cited from earlier work.
Assay [4] concerns Bcl-2. Description: Bcl-2 expression, Western immunoblotting. Particulars: primary hippocampal neurons. Background: A western blot detects proteins with antibodies after separation by electrophoresis.
The next assay deals with ERK2. Kind of assay: ERK phosphorylation, Western immunoblotting. Particulars: primary hippocampal neurons.

For `C[C@]12CCC3c4ccc(O)cc4CC(CCCCCCCCC[S+]([O-])CCCC(F)(F)C(F)(F)F)C3C1CC[C@@H]2O` (stereo partly shown) [ICI 182,780], in the assay on MCF-7 cells, the MCF-7 cell proliferation result is listed as “promoted MCF-7 cell proliferation in a concentration dependent manner”. The intracellular calcium rise result in assay [1] (compound alone) is reported as “directly induce intracellular calcium rise”. Further, the “physiological glutamate-induced rise in calcium ion concentration” value in assay [1] (physiological glutamate) is given as “potentiates the physiological glutamate-induced rise in calcium ion concentration”. The “excitotoxic glutamate-induced rise in intracellular calcium” value in assay [1] (pretreated neurons, excitotoxic glutamate) is reported as “attenuation of the glutamate-induced rise in intracellular calcium”. For the same molecule, in assay [2], the “concentration of maximal neuroprotection” value is 10 nM. In addition, in the assay on Bcl-2 [3], the Bcl-2 expression entry is “Upregulation”. For the same molecule, the Bcl-XL expression result in the assay on Bcl-XL is given as “Upregulation”. Moreover, the spinophilin expression entry with spinophilin is listed as “comparably effective to 17β-estradiol in upregulating spinophilin expression”. In addition, in the assay on Bcl-2 [4], the “expression of antiapoptotic protein Bcl-2” value is reported as “potentiate the expression of antiapoptotic protein Bcl-2”. Moreover, in the assay with ERK2, the “phosphorylation of ERK” value is given as “activate the phosphorylation of ERK”.
